# Legend:
# Assay type in all cases: cell-based
# hTRPM8 [1] = molecular target: T1, hTRPM8 (Homo sapiens, UniProt Q7Z2W7); test: Secondary in vitro screening on hTRPM8 at 5 μM versus WS-3; conditions: WS3 as reference compound
# T1 construct: expressed in transfected cells; host or cells: CHO-KJ cells [sic]
# Procedure: (§1) The compounds were evaluated in vitro on CHO-KJ cells expressing the gene encoding the hTRPM8 ion channel (Table 1). Channel activation is determined by fluorometric measurement of […] calcium using FLUO-8. The activity of the compounds was measured relative to icilin (known hTRPM8 agonist).
# The compounds 1 to 40 were tested on hTRPM8 at 5 μM using WS3 as the reference compound (Table 2).
# hTRPM8 ion channel = molecular target: T2, hTRPM8 ion channel (Homo sapiens, UniProt Q7Z2W7); test: Primary in vitro screening on hTRPM8 (CHO-KJ cells, FLUO-8 calcium fluorometry, relative to icilin); conditions: for % activation vs iciline: CHO-KJ cells expressing hTRPM8
# T2 construct: expressed in transfected cells; host or cells: CHO-KJ cells [sic]
# Procedure: as §1
# hTRPM8 [2] = molecular target: T1, hTRPM8; test: EC50 measurement on hTRPM8 (response curve); conditions: for EC50: hTRPM8, response curve
# Procedure: as §1
# A response curve was developed for compounds 1, 3, 5 and 37 which made it possible to determine the EC50 (half maximal effective concentration) values on hTRPM8 and compare them with the EC50 values of the comparative compounds (Table 3).
# T1 sequence (Q7Z2W7 whole entry): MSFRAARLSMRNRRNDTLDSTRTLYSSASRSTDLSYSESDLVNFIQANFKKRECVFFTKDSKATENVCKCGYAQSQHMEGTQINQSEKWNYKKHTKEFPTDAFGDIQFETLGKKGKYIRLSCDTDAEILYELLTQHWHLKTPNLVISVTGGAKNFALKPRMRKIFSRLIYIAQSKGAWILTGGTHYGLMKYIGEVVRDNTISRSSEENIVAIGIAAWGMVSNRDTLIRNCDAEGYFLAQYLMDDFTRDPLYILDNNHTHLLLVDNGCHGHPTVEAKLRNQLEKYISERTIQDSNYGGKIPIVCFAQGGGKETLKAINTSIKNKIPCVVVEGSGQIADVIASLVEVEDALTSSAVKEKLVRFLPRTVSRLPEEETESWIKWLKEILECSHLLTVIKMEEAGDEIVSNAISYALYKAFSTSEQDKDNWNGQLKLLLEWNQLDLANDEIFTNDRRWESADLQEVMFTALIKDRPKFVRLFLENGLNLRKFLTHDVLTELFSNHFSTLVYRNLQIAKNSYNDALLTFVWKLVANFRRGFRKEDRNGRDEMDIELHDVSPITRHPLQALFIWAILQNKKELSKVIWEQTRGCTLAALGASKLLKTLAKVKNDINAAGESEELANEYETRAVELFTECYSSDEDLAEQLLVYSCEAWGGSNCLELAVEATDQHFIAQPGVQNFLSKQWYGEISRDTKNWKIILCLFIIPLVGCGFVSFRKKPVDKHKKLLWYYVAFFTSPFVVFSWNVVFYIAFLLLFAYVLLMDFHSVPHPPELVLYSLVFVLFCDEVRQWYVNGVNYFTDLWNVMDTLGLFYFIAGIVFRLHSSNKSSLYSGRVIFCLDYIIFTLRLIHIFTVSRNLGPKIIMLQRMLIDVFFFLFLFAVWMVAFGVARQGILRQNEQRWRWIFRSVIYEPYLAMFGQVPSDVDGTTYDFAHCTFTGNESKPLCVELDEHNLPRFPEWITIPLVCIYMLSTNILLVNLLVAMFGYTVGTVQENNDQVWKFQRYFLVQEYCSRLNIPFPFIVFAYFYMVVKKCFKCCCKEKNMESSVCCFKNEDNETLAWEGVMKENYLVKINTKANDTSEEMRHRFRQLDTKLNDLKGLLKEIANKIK
# T2 sequence (Q7Z2W7 whole entry): as above
activation at 5 µM (hTRPM8 [1]),SMILES,other results
71%,"CC(C)C1CCC(C)(C)CC1(CO)CO (single isomer, unassigned) [Compound 30, (2-isopropyl-5,5-dimethylcyclohexane-1,1-diyl)dimethanol]",
3%,"CC1OCC2(CO1)C[C@H](C)CC[C@H]2C(C)C (stereo partly drawn) [Compound 2, (7S,1OR)-7-isopropyl-3,10-dimethyl-2,4-dioxaspiro[5.5]undecane]",% activation vs iciline (hTRPM8 ion channel; concentration 109 μM): 26%
94%,"CC(C)[C@@H]1CC[C@@H](C)CC12COC(C)(C)OC2 [Compound 3, (7S,1OR)-7-isopropyl-3,3,10-trimethyl-2,4-dioxaspiro[5.5]undecane]","EC50 on hTRPM8 compared with WS-3 and WS-5 (hTRPM8 [2]; Table 3): EC50 values lower than WS-3™ and similar to WS-5™; EC50 (hTRPM8 [2]): 2.5 µM; % activation vs iciline (hTRPM8 ion channel; concentration 104 μM): 99%; activation on hTRPM8 compared with comparative molecules (Physcool, WS-5, WS-3, l-isopulegol, l-menthol, menthyl lactate) (hTRPM8 ion channel; primary screening, Table 1): greater activations than the comparative molecules"
-1%,"CCC1OCC2(CO1)C[C@H](C)CC[C@H]2C(C)C (stereo partly drawn) [Compound 4, (7S,1OR)-3-ethyl-7-isopropyl-10-methyl-2,4-dioxaspiro[5.5]undecane]",% activation vs iciline (hTRPM8 ion channel; concentration 101 μM): 39%
3%,"CC(C)[C@@H]1CC[C@@H](C)CC12COCOC2 [Compound 6, (7S,1OR)-7-isopropyl-10-methyl-2,4-dioxaspiro[5.5]undecane]",% activation vs iciline (hTRPM8 ion channel; concentration 104 μM): 32%
0%,"CC(C)[C@@H]1CC[C@@H](C)CC12COC1(C[C@H](C)CC[C@H]1C(C)C)OC2 (stereo partly drawn) [Compound 7, (1S,4R,10S,13R)-1,10-diisopropyl-4,13-dimethyl-7,16-dioxadispiro [5.2.5^90.2^6]hexadecane]",
6%,"CC(C)[C@@H]1CC[C@@H](C)CC1(C=O)C=O [Compound 8, (2S,5R)-2-isopropyl-5-methylcyclohexane-1,1-dicarbaldehyde]",
0%,"CC(=O)OCC1(COC(C)=O)C[C@H](C)CC[C@H]1C(C)C [Compound 9, ((2S,5R)-2-isopropyl-5-methylcyclohexane-1,1-diyl)bis(methylene) diacetate]",
10%,"CC1CC(C)(C)CC(CO)(CO)C1 (centres unmarked) [Compound 10, (3,3,5-trimethylcyclohexane-1,1-diyl)dimethanol]",
3%,"CC1CC(C)(C)CC2(COC(C)OC2)C1 (centres unmarked) [Compound 11, 3,8,8,10-tetramethyl-2,4-dioxaspiro[5.5]undecane]",
1%,"CC1CC(C)(C)CC2(COC(C)(C)OC2)C1 (centres unmarked) [Compound 12, 3,3,8,8,10-pentamethyl-2,4-dioxaspiro[5.5]undecane]",
1%,"CCC1(C)OCC2(CO1)C[C@H](C)CC[C@H]2C(C)C (stereo partly drawn) [Compound 13, (7S,1OR)-3-ethyl-7-isopropyl-3,10-dimethyl-2,4-dioxaspiro[5.5]undecane]",
-1%,"CCCC1OCC2(CO1)C[C@H](C)CC[C@H]2C(C)C (stereo partly drawn) [Compound 14, (7S,1OR)-7-isopropyl-10-methyl-3-propyl-2,4-dioxaspiro[5.5]undecane]",
-6%,"CC(C)C1OCC2(CO1)C[C@H](C)CC[C@H]2C(C)C (stereo partly drawn) [Compound 15, (7S,1OR)-3,7-diisopropyl-10-methyl-2,4-dioxaspiro[5.5]undecane]",
-1%,"CCC(C)C1OCC2(CO1)C[C@H](C)CC[C@H]2C(C)C (stereo partly drawn) [Compound 16, (7S,1OR)-3-(sec-butyl)-7-isopropyl-10-methyl-2,4-dioxaspiro[5.5]undecane]",
1%,"COCC1(COC)C[C@H](C)CC[C@H]1C(C)C [Compound 17, (2S,5R)-2-isopropyl-1,1-bis(methoxymethyl)-5-methylcyclohexane]",
3%,"CC(C)[C@@H]1CC[C@@H](C)CC12COC(c1ccccc1)OC2 (stereo partly drawn) [Compound 18, (7S,1OR)-7-isopropyl-10-methyl-3-phenyl-2,4-dioxaspiro[5.5]undecane]",
4%,"CC1(C)CCCC(CO)(CO)C1 [Compound 20, (3,3-dimethylcyclohexane-1,1-diyl)dimethanol]",
-2%,"CC(C)[C@@H]1CC[C@@H](C)CC1(COC(=O)CCC(=O)O)COC(=O)CCC(=O)O [Compound 21, 4,4′-((((2S,5R)-2-isopropyl-5-methylcyclohexane-1,1-diyl)bis (methylene))bis(oxy))bis(4-oxobutanoic acid)]",
13%,"CC(C)[C@@H]1CC[C@@H](C)CC12COC(C)(c1ccccc1)OC2 (stereo partly drawn) [Compound 22, (7S,1OR)-7-isopropyl-3,10-dimethyl-3-phenyl-2,4-dioxaspiro[5.5]undecane]",
4%,"CC(C)[C@@H]1CC[C@@H](C)CC12COC(c1ccccn1)OC2 (stereo partly drawn) [Compound 23, 2-((7S,10R)-7-isopropyl-10-methyl-2,4-dioxaspiro[5.5]undecan-3-yl) pyridine]",
3%,"CC(C)[C@@H]1CC[C@@H](C)CC12COC(c1cccs1)OC2 (stereo partly drawn) [Compound 24, (7S,1OR)-7-isopropyl-10-methyl-3-(thiophen-2-yl)-2,4-dioxaspiro[5.5]undecane]",

activation at 5 µM (hTRPM8 [1]),SMILES,other results
3%,"CSCCC1OCC2(CO1)C[C@H](C)CC[C@H]2C(C)C (stereo partly drawn) [Compound 25, (7S,1OR)-7-isopropyl-10-methyl-3-(2-(methylthio)ethyl)-2,4-dioxaspiro [5.5]undecane]",
3%,"CC1OCC2(CCCC(C)(C)C2)CO1 (centres unmarked) [Compound 26, 3,8,8-trimethyl-2,4-dioxaspiro[5.5]undecane]",
40%,"CCC(C)C1CCCCC1(CO)CO (centres unmarked) [Compound 27, (2-(sec-butyl)cyclohexane-1,1-diyl)dimethanol]",
5%,"CCOC(=O)C1OCC2(CO1)C[C@H](C)CC[C@H]2C(C)C (stereo partly drawn) [Compound 28, Ethyl (7S,1OR)-7-isopropyl-10-methyl-2,4-dioxaspiro[5.5]undecane-3-carboxylate]",
26%,"CC(C)[C@@H]1CC[C@@H](C)CC1(CCO)CCO [Compound 29, 2,2′-((2S,5R)-2-isopropyl-5-methylcyclohexane-1,1-diyl)bis(ethan-1-ol)]",
-2%,"CCC(C)C1CCCCC12COC(C)OC2 (centres unmarked) [Compound 31, 7-(sec-butyl)-3-methyl-2,4-dioxaspiro[5.5]undecane]",
4%,"CC(=O)OCC1(CO)C[C@H](C)CC[C@H]1C(C)C (stereo partly drawn) [Compound 32, ((2S,5R)-1-(hydroxymethyl)-2-isopropyl-5-methylcyclohexyl)methyl acetate]",
1%,"CC1OCC2(CO1)CC(C)(C)CCC2C(C)C (centres unmarked) [Compound 33, 7-isopropyl-3,10,10-trimethyl-2,4-dioxaspiro[5.5]undecane]",
21%,"CC(C)[C@@H]1CC[C@@H](C)CC1(C(C)O)C(C)O (stereo partly drawn) [Compound 34, 1,1′-((2S,5R)-2-isopropyl-5-methylcyclohexane-1,1-diyl)bis(ethan-1-ol)]",
14%,"C=C(C)[C@@H]1CC[C@@H](C)C[C@H]1C(CO)CO [Compound 35, 2-((1R,2R,5R)-5-methyl-2-(prop-1-en-2-yl)cyclohexyl)propane-1,3-diol]",
6%,"C=C(C)[C@@H]1CC[C@@H](C)C[C@H]1C1COC(C)OC1 (stereo partly drawn) [Compound 36, 2-methyl-5-((1R,2R,5R)-5-methyl-2-(prop-1-en-2-yl)cyclohexyl)-1,3-dioxane]",
65%,"CC(C)[C@@H]1CC[C@@H](C)C[C@H]1C(CO)CO [Compound 37, 2-((1R,2S,5R)-2-isopropyl-5-methylcyclohexyl)propane-1,3-diol]",EC50 (hTRPM8 [2]): 70 µM
8%,"CC(C)[C@@H]1CC[C@@H](C)CC1(CO)COCc1ccccc1 (stereo partly drawn) [Compound 38, ((2S,5R)-1-((benzyloxy)methyl)-2-isopropyl-5-methylcyclohexyl) methanol]",
16%,"CC(C)[C@@H]1CC[C@@H](C)CC1(CO)C(=O)O (stereo partly drawn) [Compound 39, (2S,5R)-1-(hydroxymethyl)-2-isopropyl-5-methylcyclohexane-1-carboxylic acid]",
8%,"CC1(C)CC(C)(C)CC(CO)(CO)C1 [Compound 40, (3,3,5,5-tetramethylcyclohexane-1,1-diyl)dimethanol]",
,"CC(C)[C@@H]1CC[C@@H](C)C[C@H]1OC(=O)CCC(=O)O [Physcool ™, reference compound]",% activation vs iciline (hTRPM8 ion channel): -2%
,"CCNC(=O)C1CC(C)CCC1C(C)C (centres unmarked) [WS-3 ™, reference compound]",EC50 (hTRPM8 [2]): 8 µM; % activation vs iciline (hTRPM8 ion channel; concentration 119 μM): 76%
,"CCOC(=O)CNC(=O)[C@@H]1C[C@H](C)CC[C@H]1C(C)C [WS-5 ™, reference compound]",EC50 (hTRPM8 [2]): 1 µM; % activation vs iciline (hTRPM8 ion channel): 73%
,"C=C(C)[C@@H]1CC[C@@H](C)C[C@H]1O [l-isopulegol, reference compound]",% activation vs iciline (hTRPM8 ion channel; concentration 123 μM): 51%
,"CC(C)[C@@H]1CC[C@@H](C)C[C@H]1O [l-menthol, reference compound]",% activation vs iciline (hTRPM8 ion channel; concentration 114 μM): 78%
,"CC1CCC(C(C)C)C(OC(=O)C(C)O)C1 (centres unmarked) [menthyl lactate, reference compound]",% activation vs iciline (hTRPM8 ion channel; concentration 116 μM): 53%
